Data as given in patent publication US20230143604A1, “QW DOSING OF GIP RECEPTOR AGONIST PEPTIDE COMPOUNDS AND USES THEREOF” (TAKEDA PHARMACEUTICAL COMPANY LIMITED, priority 2020, published 2023).
Where two headings read alike, the source gives them in different places.

How the values were obtained:
[1] = test system: C57BL/6J mice; assay: Oral glucose tolerance test (OGTT); type: in vivo; settings: 3 nmol/kg s.c., 24 hours before glucose loading
Protocol: An oral glucose tolerance test (OGTT) was carried out using C57BL/6J mice with a 50% dextrose solution dosed at 5 ml/kg. Testing concentrations of 0.1 nmol/kg, 0.3 nmmol/kg, 3 nmol/kg or 10 nmol/kg were selected depending on the peptide. Each peptide or a vehicle (control group) was subcutaneously administered 24 hours (unless shown otherwise) before glucose loading and the blood glucose was measured at 0, 15, 30, and 60 minutes after glucose dosing.
% inhibition=(1−(AUC cpd−AUC naïve/AUC veh−AUC naïve))×100.

[2] = physchem
Method in brief: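 3 mg of peptide treated with 100 μL portions of 200 mM phosphate buffer pH 7.4, sonicating/vortexing up to 1 min, with further buffer added until fully dissolved. Solubility then quantified by HPLC.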

[3] = target: T1, human GLP-1R (Homo sapiens, UniProt P43220); assay: Human GLP1R agonist activity, intracellular cAMP accumulation; type: cell-based; settings: HEK-293T cells overexpressing human GLP-1R, 1 hr
T1 construct: HEK-293T cells overexpressing full-length human GLP-1R; FLAG (N); host or cells: HEK-293T
T1 sequence (P43220 24-463): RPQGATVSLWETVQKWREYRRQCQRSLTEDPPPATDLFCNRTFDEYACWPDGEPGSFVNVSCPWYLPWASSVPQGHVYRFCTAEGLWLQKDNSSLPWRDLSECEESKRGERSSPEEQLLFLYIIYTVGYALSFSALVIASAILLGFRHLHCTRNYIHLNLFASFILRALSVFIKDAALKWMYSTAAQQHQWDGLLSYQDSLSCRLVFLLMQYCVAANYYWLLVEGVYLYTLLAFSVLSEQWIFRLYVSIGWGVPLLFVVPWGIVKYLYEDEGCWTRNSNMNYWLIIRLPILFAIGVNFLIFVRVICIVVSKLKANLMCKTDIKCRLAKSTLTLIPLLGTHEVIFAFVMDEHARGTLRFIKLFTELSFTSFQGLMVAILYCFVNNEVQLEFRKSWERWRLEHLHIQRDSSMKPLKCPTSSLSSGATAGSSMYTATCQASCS
Protocol: Cells are cultured per the manufacturer's protocol in DMEM with 10% fetal bovine serum and 1 μg/mL puromycin and stored in frozen aliquots to be used as assay ready cells. On the day of the assay, cells are removed from frozen storage, washed two times in 1× Kreb's Ringer Buffer (Zenbio, Research Triangle Park, N.C.), and re-suspended to a concentration of 4×10^5 cells/mL in 1× Kreb's Ringer Buffer. […] Cells are incubated with test compound for 1 hr at room temperature in the dark, and cAMP accumulation is measured using the Cisbio HiRange cAMP assay kit (Bedford, Mass.) per the manufacturer's protocol. Anti-cAMP antibody and d2-cAMP tracer reagents diluted in lysis/detection buffer are incubated in the dark for 1 hr, and results are measured on an Envision plate reader (Perkin Elmer, Waltham, Mass.). Data is normalized using 1 nm GLP-1 as 100% activity, and DMSO alone as 0% activity.

[4] = read-out: Human GLP1R cAMP EC50, HEK293T
[5] = Human GLP1R cAMP EC50, HEK293T (nM)
[6] = pH 7.4, aqueous buffer, pH 7.4 Phosphate Buffer - Solubility, 200 mM Phosphate buffer pH 7.4
[7] = pH 7.4, solubility in phosphate buffer at pH 7.4, 200 mM phosphate buffer pH 7.4

Row | Compound | Oral Glucose Tolerance Test Percent decrease in blood glucose AUC (%) over 60 mins [1] | solubility ([2]; pH 7.4) [mg/mL] | solubility ([2]; pH 7.4, aqueous buffer) [mg/mL] | EC50 [3, 4] [nM] | EC50 [3, 5] [nM] | solubility [2, 6] [mg/mL] | solubility [2, 7] [mg/mL]
1 | CC[C@H](C)[C@H](NC(=O)[C@H](CO)NC(=O)[C@H](Cc1ccc(O)cc1)NC(=O)[C@H](CC(=O)O)NC(=O)[C@H](CO)NC(=O)[C@@H](NC(=O)[C@H](Cc1ccccc1)NC(=O)[C@@H](NC(=O)CNC(=O)[C@H](CCC(=O)O)NC(=O)C(C)(C)NC(=O)[C@@H](N)Cc1ccc(O)cc1)[C@@H](C)O)[C@@H](C)CC)C(=O)N[C@@H](C)C(=O)N[C@@H](CCCCNC(=O)CNC(=O)CNC(=O)CNC(=O)CNC(=O)CNC(=O)CCCCCCCCCCCCCCCCC(=O)O)C(=O)N[C@@H](CC(=O)O)C(=O)N[C@@H](CCCNC(=N)N)C(=O)NC(C)(C)C(=O)N[C@@H](C)C(=O)N[C@@H](CCC(N)=O)C(=O)NC(C)(C)C(=O)N[C@@H](CC(=O)O)C(=O)N[C@@H](Cc1ccccc1)C(=O)N[C@H](C(=O)N[C@@H](CCC(=O)O)C(=O)N[C@@H](Cc1c[nH]c2ccccc12)C(=O)N[C@@H](CC(C)C)C(=O)N[C@@H](CC(C)C)C(=O)N[C@@H](C)C(=O)N[C@@H](CCC(N)=O)C(=O)N[C@@H](CCCNC(=N)N)C(=O)NCC(=O)O)C(C)C [Compound 144] | 35% (3 nmol/kg) | ≥ 15 | ≥ 30 |  |  |  | 
2 | CC[C@H](C)[C@H](NC(=O)[C@H](CO)NC(=O)[C@H](Cc1ccc(O)cc1)NC(=O)[C@H](CC(=O)O)NC(=O)[C@H](CO)NC(=O)[C@@H](NC(=O)[C@H](Cc1ccccc1)NC(=O)[C@@H](NC(=O)CNC(=O)[C@H](CCC(=O)O)NC(=O)C(C)(C)NC(=O)[C@H](Cc1ccc(O)cc1)NC)[C@@H](C)O)[C@@H](C)CC)C(=O)N[C@@H](C)C(=O)N[C@@H](CCCCNC(=O)CNC(=O)CNC(=O)CNC(=O)CNC(=O)CNC(=O)CCCCCCCCCCCCCCCCC(=O)O)C(=O)N[C@@H](CC(=O)O)C(=O)N[C@@H](CO)C(=O)NC(C)(C)C(=O)N[C@@H](C)C(=O)N[C@@H](CCC(N)=O)C(=O)NC(C)(C)C(=O)N[C@@H](CC(=O)O)C(=O)N[C@@H](Cc1ccccc1)C(=O)N[C@H](C(=O)N[C@@H](CC(N)=O)C(=O)N[C@@H](Cc1c[nH]c2ccccc12)C(=O)N[C@@H](CC(C)C)C(=O)N[C@@H](CC(C)C)C(=O)N[C@@H](C)C(=O)N[C@@H](CCC(N)=O)C(=O)N[C@@H](CCCCN)C(=O)NCC(=O)O)C(C)C [Compound 75] |  | ≥ 15 | ≥ 30 | 550 |  |  | 
3 | CC[C@H](C)[C@H](NC(=O)[C@H](Cc1ccccc1)NC(=O)[C@@H](NC(=O)CNC(=O)[C@H](CCC(=O)O)NC(=O)C(C)(C)NC(=O)[C@H](Cc1ccc(O)cc1)NC)[C@@H](C)O)C(=O)N[C@@H](CO)C(=O)N[C@@H](CC(=O)O)C(=O)N[C@@H](Cc1ccc(O)cc1)C(=O)N[C@@H](CO)C(=O)N[C@H](C(=O)NC(C)(C)C(=O)N[C@@H](CCCCNC(=O)CNC(=O)CNC(=O)CNC(=O)CNC(=O)CNC(=O)CCCCCCCCCCCCCCCC(=O)O)C(=O)N[C@@H](CC(=O)O)C(=O)N[C@@H](CCCNC(=N)N)C(=O)NC(C)(C)C(=O)N[C@@H](C)C(=O)N[C@@H](CCC(N)=O)C(=O)NC(C)(C)C(=O)N[C@@H](CC(N)=O)C(=O)N[C@@H](Cc1ccccc1)C(=O)N[C@H](C(=O)N[C@@H](CC(N)=O)C(=O)N[C@@H](Cc1c[nH]c2ccccc12)C(=O)N[C@@H](CC(C)C)C(=O)N[C@@H](CC(C)C)C(=O)N[C@@H](C)C(=O)N[C@@H](CCC(N)=O)C(=O)N[C@@H](CO)C(=O)N1CCC[C@H]1C(=O)N[C@@H](CO)C(=O)N[C@@H](CO)C(=O)NCC(=O)N[C@@H](C)C(=O)N1CCC[C@H]1C(=O)N1CCC[C@H]1C(=O)N1CCC[C@H]1C(=O)N[C@@H](CO)C(=O)O)C(C)C)[C@@H](C)CC [Compound 95] |  |  |  |  | 17.4 | ≥ 60 | ≥ 15
4 | CC[C@H](C)[C@H](NC(=O)[C@H](Cc1ccccc1)NC(=O)[C@@H](NC(=O)CNC(=O)[C@H](CCC(=O)O)NC(=O)C(C)(C)NC(=O)[C@@H](N)Cc1ccc(O)cc1)[C@@H](C)O)C(=O)N[C@@H](CO)C(=O)N[C@@H](CC(=O)O)C(=O)N[C@@H](Cc1ccc(O)cc1)C(=O)N[C@@H](CO)C(=O)N[C@H](C(=O)NC(C)(C)C(=O)N[C@@H](CCCCNC(=O)CNC(=O)CNC(=O)CNC(=O)CNC(=O)CNC(=O)CCCCCCCCCCCCCCCCC(=O)O)C(=O)N[C@@H](CC(=O)O)C(=O)N[C@@H](CO)C(=O)NC(C)(C)C(=O)N[C@@H](C)C(=O)N[C@@H](CCC(N)=O)C(=O)N[C@@H](C)C(=O)N[C@@H](CC(=O)O)C(=O)N[C@@H](Cc1ccccc1)C(=O)N[C@H](C(=O)N[C@@H](CC(N)=O)C(=O)N[C@@H](Cc1c[nH]c2ccccc12)C(=O)N[C@@H](CC(C)C)C(=O)N[C@@H](CC(C)C)C(=O)N[C@@H](C)C(=O)N[C@@H](CCC(N)=O)C(=O)N[C@@H](CCCNC(=N)N)C(=O)NCC(=O)O)C(C)C)[C@@H](C)CC [Compound 152] |  | ≥ 15 | ≥ 30 | 33.1 |  |  | 
5 | CC[C@H](C)[C@H](NC(=O)[C@H](CO)NC(=O)[C@H](Cc1ccc(O)cc1)NC(=O)[C@H](CC(=O)O)NC(=O)[C@H](CO)NC(=O)[C@@H](NC(=O)[C@H](Cc1ccccc1)NC(=O)[C@@H](NC(=O)CNC(=O)[C@H](CCC(=O)O)NC(=O)C(C)(C)NC(=O)[C@H](Cc1ccc(O)cc1)NC)[C@@H](C)O)[C@@H](C)CC)C(=O)N[C@@H](C)C(=O)N[C@@H](CCCCNC(=O)CNC(=O)CNC(=O)CNC(=O)CNC(=O)CNC(=O)CCCCCCCCCCCCCCCCC(=O)O)C(=O)N[C@@H](CC(=O)O)C(=O)N[C@@H](CCCCN)C(=O)NC(C)(C)C(=O)N[C@@H](C)C(=O)N[C@@H](CCC(N)=O)C(=O)NC(C)(C)C(=O)N[C@@H](CC(=O)O)C(=O)N[C@@H](Cc1ccccc1)C(=O)N[C@H](C(=O)N[C@@H](CC(N)=O)C(=O)N[C@@H](Cc1c[nH]c2ccccc12)C(=O)N[C@@H](CC(C)C)C(=O)N[C@@H](CC(C)C)C(=O)N[C@@H](C)C(=O)N[C@@H](CCC(N)=O)C(=O)N[C@@H](CCCCN)C(=O)NCC(=O)O)C(C)C [Compound 76] |  | ≥ 15 | ≥ 30 | 28.8 |  |  | 
6 | CC[C@H](C)[C@H](NC(=O)[C@H](Cc1ccccc1)NC(=O)[C@@H](NC(=O)CNC(=O)[C@H](CCC(=O)O)NC(=O)C(C)(C)NC(=O)[C@H](Cc1ccc(O)cc1)NC)[C@@H](C)O)C(=O)N[C@@H](CO)C(=O)N[C@@H](CC(=O)O)C(=O)N[C@@H](Cc1ccc(O)cc1)C(=O)N[C@@H](CO)C(=O)N[C@H](C(=O)NC(C)(C)C(=O)N[C@@H](CC(C)C)C(=O)N[C@@H](CC(=O)O)C(=O)N[C@@H](CO)C(=O)N[C@@H](CCCCNC(=O)CNC(=O)CNC(=O)CNC(=O)CNC(=O)CNC(=O)CCCCCCCCCCCCCCCCC(=O)O)C(=O)N[C@@H](C)C(=O)N[C@@H](CCC(N)=O)C(=O)NC(C)(C)C(=O)N[C@@H](CC(=O)O)C(=O)N[C@@H](Cc1ccccc1)C(=O)N[C@H](C(=O)N[C@@H](CC(N)=O)C(=O)N[C@@H](Cc1c[nH]c2ccccc12)C(=O)N[C@@H](CC(C)C)C(=O)N[C@@H](CC(C)C)C(=O)N[C@@H](C)C(=O)N[C@@H](CCC(N)=O)C(=O)N[C@@H](CCCCN)C(=O)NCC(=O)O)C(C)C)[C@@H](C)CC [Compound 77] |  | ≥ 15 | ≥ 30 | 17 |  |  | 
7 | CC[C@H](C)[C@H](NC(=O)[C@H](CO)NC(=O)[C@H](Cc1ccc(O)cc1)NC(=O)[C@H](CC(=O)O)NC(=O)[C@H](CO)NC(=O)[C@@H](NC(=O)[C@H](Cc1ccccc1)NC(=O)[C@@H](NC(=O)CNC(=O)[C@H](CCC(=O)O)NC(=O)C(C)(C)NC(=O)[C@H](Cc1ccc(O)cc1)NC)[C@@H](C)O)[C@@H](C)CC)C(=O)N[C@@H](C)C(=O)N[C@@H](CCCCNC(=O)CNC(=O)CNC(=O)CNC(=O)CNC(=O)CNC(=O)CCCCCCCCCCCCCCCCCCC(=O)O)C(=O)N[C@@H](CC(=O)O)C(=O)N[C@@H](CCCNC(=N)N)C(=O)NC(C)(C)C(=O)N[C@@H](C)C(=O)N[C@@H](CCC(N)=O)C(=O)NC(C)(C)C(=O)N[C@@H](CC(N)=O)C(=O)N[C@@H](Cc1ccccc1)C(=O)N[C@H](C(=O)N[C@@H](CC(N)=O)C(=O)N[C@@H](Cc1c[nH]c2ccccc12)C(=O)N[C@@H](CC(C)C)C(=O)N[C@@H](CC(C)C)C(=O)N[C@@H](C)C(=O)N[C@@H](CCC(N)=O)C(=O)N[C@@H](CO)C(=O)N1CCC[C@H]1C(=O)N[C@@H](CO)C(=O)N[C@@H](CO)C(=O)NCC(=O)N[C@@H](C)C(=O)N1CCC[C@H]1C(=O)N1CCC[C@H]1C(=O)N1CCC[C@H]1C(=O)N[C@@H](CO)C(=O)O)C(C)C [Compound 112] |  |  |  |  | 21.4 | ≥ 30 | ≥ 15
